Ends that are not written are not given here.
Columns and labels:
[1] = in vivo; cited from earlier work
Text: (§1) At present, clinical drugs for HGPS are very rare except for Zokinvy (lonafarnib), which has been approved by the United States (US) Food and Drug Administration (FDA). […] Recently, some gene therapies for HGPS treatment have been developed. The clustered regularly interspaced short palindromic repeat–adeno-associated virus 9 system is used to reduce the expression of progerin and the adenine base editor–adeno-ass ...

[2] = system: progerin–BUBR1 interaction; assay: CoIP of progerin and BUBR1 in HEK-293T cells; type: cell-based; details: HEK-293T cotransfected with Flag-progerin-C 5, 10, 15 μg and HA-progerin
Description: Detailed descriptions of CoIP were described previously[55],[56]. Cells were harvested and washed three times in cold PBS, then lysed in CoIP buffer (25 mM Tris-HCl (pH 7.5), 150 mM KCl, 5 mM EDTA, and 0.5% NP-40) plus protease inhibitor cocktail tablet (Roche). Incubate on ice and shock lysates on the vortex shaker 15 times for 30 s each. Microcentrifuge in 12,000g for 15 min at 4 °C, collect the supernatant, and incubate with 3 μg primary antibodies with gentle shaking overnight at 4 °C, followed by adding 20–40 μl Pure Proteome Protein A/G Mix Magnetic Beads (Millipore, catalog no. […]02) for 3 h. Wash the beads three times with 1 ml CoIP buffer for 8 min each, resuspend in 50 μl 1× loading buffer, and incubate at 100 °C for 8 min. Throw beads away and analyze by immunoblotting.

HEK-293T cells = assay: Immunofluorescence localization of Flag-progerin-C in HEK-293T cells; type: cell-based; details: Flag-progerin-C expressed in HEK-293T
Description: (§2) Immunofluorescence was performed as described previously. Cells were plated on cover slips in 12-well plates, left overnight before the treatment. Cells were fixed in 1% formaldehyde in culture medium for 10 min at 37 °C and permeabilized with 0.2% Triton X-100 in PBS for 10 min at room temperature. Cells were washed twice in PBS and blocked for 1 h with 5% BSA in PBS and then incubated with primary antibodies at 4 °C overnight, washed three times in PBS and incubated with secondary antibodies for 1 h at room temperature. Cell nuclei were counterstained with a 500 nM concentration of 4,6-diamidino-2-phenylindole (DAPI) (Sigma). Images were acquired by a fluorescence microscope (OLYMPUS FV-1000, Carl Zeiss LSM880 or Leica DMi8) and analyzed with software NIS-Elements AR v.5.0.1 (Nikon), FLUOVIEW v.4.2b (OLYMPUS), ZEN v.2.3 SP1 (Carl Zeiss) and Leica Application Suite X v.3.6.0.24 (Leica). Cells were quantified by investigators who were blinded to the identity of the analyzed cell.

[3] = system: BUBR1 / CyclinA2 in HGADFN003 cells; assay: Western blot of BUBR1 and CyclinA2 in HGADFN003 cells; type: cell-based, human; details: HGADFN003
Description: Western blot was performed as previously described. Cells were lysed in 1× Laemmli sample buffer after washing twice in cold PBS without calcium and magnesium. Protein concentrations were determined using the bicinchoninic acid (BCA) protein assay. Protein lysates were subjected to SDS–PAGE, transferred to 0.45-μm pore size hydrophobic PVDF transfer membrane (Merck Millipore), detected with the appropriate primary antibodies coupled with horseradish peroxidase-conjugated corresponding secondary antibodies, and visualized using enhanced chemiluminescence ECL reagent (GE Healthcare). The Tanon 5500 high-definition low-illumination CCD system (Tanon FLI Capture v.1.02) was used to capture chemiluminescent signals.

HGADFN003 cells [4] = assay: SA-β-gal staining of HGADFN003 cells; type: cell-based, human; details: for SA-β-gal positive cells: HGADFN003, Extended Data Fig. 10c
Description: SA-β-gal staining was performed as previously described. Cells were fixed in 0.5% glutaraldehyde for 15 min at room temperature, washed three times with PBS (pH 6.0) containing 1 mM MgCl2 and exposed overnight 37 °C to containing 1 mg ml^–1 5-bromo-4-chloro-3-indolyl-β-D-galactopyranoside (MCE, catalog no. HY-15934), 0.12 mM potassium ferrocyanide (Sigma, catalog no. P3289), 0.12 mM potassium ferricyanide (Sigma, catalog no. P8131) and 1 mM MgCl2 PBS buffer (pH 6.0). Cells were washed three times with H2O and observed under a microscope (OLYMPUS CKX53). SA-β-gal positive cells were quantified by investigators who were blinded to the identity of the analyzed cell.

HGADFN003 cells [5] = assay: Ki67 immunofluorescence of HGADFN003 cells; type: cell-based, human; details: for Ki67 positive cells: HGADFN003, Extended Data Fig. 10e
Description: as §2

[6] = system: BUBR1–progerin interaction; assay: Immunofluorescence of BUBR1 in IMR90 cells with FTI or UPCP; type: cell-based, human
Description: as §2

HGPS cells = details: cited from earlier work
Text: as §1

In the case of `NC(=O)N1CCC(CC(=O)N2CCC([C@H]3c4ncc(Br)cc4CCc4cc(Cl)cc(Br)c43)CC2)CC1` [Zokinvy (lonafarnib), lonafarnib], the adverse reactions [1] is given as “diarrhea and vomiting”.
For “progerin-C: progerin C-terminal region (aa residues 565–614), expressed in cells (HHGSHCSSSGDPAEYNLRSRTVLCGTCGQPADKASASGSGAQSPQNCSIM; cysteine pairing not given here; also: 3×Flag tag, end not given here)”, the “competition with progerin to bind BUBR1” value [2] was “competes with progerin to bind BUBR1” and the cellular location (HEK-293T cells) was “distributed throughout the cell”.
For `COC(=O)[C@H](CCSC)NC(=O)c1ccc(NC[C@@H](N)CS)cc1-c1ccccc1` [FTI-277, reference compound], the “BUBR1 expression (FTI-277/UPCP comparison, words)” value [3] was “increasing expression of BUBR1”, the “CyclinA2 expression (FTI-277/UPCP comparison, words)” value [3] was “increasing expression of BUBR1, CyclinA2” and the “SA-β-gal activity (FTI-277/UPCP comparison, words)” value (HGADFN003 cells [4]; HGADFN003) was “decreased the activity of SA-β-gal”. It also gave an SA-β-gal positive cells (HGADFN003 cells [4]; replicate 1) of 20%, an SA-β-gal positive cells (HGADFN003 cells [4]; replicate 2) of 15% and an SA-β-gal positive cells (HGADFN003 cells [4]; replicate 3) of 13%. For the same compound, the “Ki67 expression (FTI-277/UPCP comparison, words)” value (HGADFN003 cells [5]; HGADFN003) was “increasing expression of BUBR1, CyclinA2 and Ki67”, the Ki67 positive cells (HGADFN003 cells [5]; replicate 1) was 57% and the Ki67 positive cells (HGADFN003 cells [5]; replicate 2) was 61%. For the same compound, the Ki67 positive cells (HGADFN003 cells [5]; replicate 3) was 75% and the “block of the interaction of BUBR1 and progerin” value [6] was “failed to block the interaction of BUBR1 and progerin”.
For neuropeptide Y, the “cellular HGPS aging phenotype” value (HGPS cells) is listed as “delays the cellular HGPS aging phenotype by stimulating autophagy and decreasing progerin accumulation”.

Reference: publication PMC10154249, “Unique progerin C-terminal peptide ameliorates Hutchinson–Gilford progeria syndrome phenotype by rescuing BUBR1” (Nature Aging, 2023)
